According to patent US11813277B2, “Methods and agents for modulating inflammation” (The Regents of the University of California, priority 2018, dated 2023):

Key:
[1] = test system: phosphate (Pi) transporter; experiment: Phosphate transporter assay (mitochondrial swelling); assay type: biochemical, rat; settings: 250 μM etomoxir, 100 μM NEM, 10 μM mersalyl
Method: Phosphate transport was measured by monitoring swelling of de-energized mitochondria in isotonic potassium phosphate medium based upon principles described by Coty, W. A. and Pedersen, P. L. (1975) Phosphate transport in rat liver mitochondria. Kinetics, inhibitor sensitivity, energy requirements, and labeled components. Mol Cell Biochem. 9, 109-24. As the phosphate carrier acts as electroneutral symporter with protons, the process is self-restricting due to generation of an opposing pH gradient. […] In the presence of nigericin, the proton fluxes cycle resulting in electro- and pH-neutral transport of potassium phosphate down its concentration gradient into the mitochondrial matrix, resulting in osmotic accumulation of water. Under these conditions, transport is limited by the activity of phosphate carrier, and can be recorded as mitochondrial swelling (a decrease in light scattering).
The measurements were performed in an LS-50B spectrofluorometer (Perkin-Elmer) at 540 nm. Assay medium contained 125 mM potassium phosphate, pH 7.2, 0.5 mM EGTA, and 2 μM rotenone. Mouse liver mitochondria (0.5 mg/ml) were treated with 250 μM etomoxir, 100 μM N-ethylmaleimide (NEM) (Klingenberg, M., Durand, R., and Guerin, B. (1974) Analysis of the reactivity of SH-reagents with the mitochondrial phosphate carrier. Eur J Biochem, 42, 135-150) or 10 μM mersalyl (Paradies, G. and Ruggiero, F. M. (1991) Effect of aging on the activity of the phosphate carrier and on the lipid composition in rat liver mitochondria. Arch Biochem Biophys. 284, 332-337) and the reaction was started with 5 μM nigericin. Typical traces from 3 experiments are shown. To establish the maximally swollen state of mitochondria, 80 μg/ml alamethicin was used.

[2] = test system: M(IL-4) polarization of BMDMs; experiment: Flow cytometry of IL-4-associated cell surface markers in BMDMs; assay type: cell-based, mouse; settings: for number of cells positive for both CD206 and CD71: IL-4; for population of CD206+/CD71+ cells: oxidative phosphorylation inhibitors co-treated with IL-4
Method: (§1) For all gene expression and flow cytometry experiments described below, day 6 BMDM were plated at 3×10^5 cell/well in 12-well plates. The next day, cells were treated with appropriate compounds (and duration as indicated in figures and below) in DMEM supplemented with 5% FBS, 2 mM L-glutamine, 100 units/mL, 100 μg/mL penicillin/streptomycin, 500 μM of sodium pyruvate and 5% v/v conditioned media containing macrophage colony stimulating factor (M-CSF).
(§2) For flow cytometry experiments involving etomoxir (FIG. 1G, FIG. 2A, FIG. 2D, FIG. 3A, FIG. 3B, FIG. 3G, FIG. 3H): BMDMs were mock-treated (media replacement only) or treated with 20 ng/mL of IL-4±3 μM or 200 μM of etomoxir for 48 hr. When measuring expression of M(IL-4)-associated genes in response to etomoxir (FIG. 1H, FIG. 2B), BMDMs were mock-treated or treated with 20 ng/mL of IL4±etomoxir as indicated for 24 hr.
(§3) For experiments involving respiratory chain inhibitors: BMDMs were mock-treated (media replacement only) or treated with 20 ng/mL of IL4±1.2 μM oligomycin (Oligo), 200 nM rotenone (Rot), 200 nM antimycin A (AntiA), 100 nM piericidin A (PierA), or 5 μM carboxyatractylate (CAT) for either 24 (FIG. 4G, FIG. 4H, FIG. 6G) or 48 hr (FIG. 4F, FIG. 7D). All inhibitors were given as co-treatments simultaneously with IL-4.
For experiments involving CoA supplementation (FIG. 10A, FIG. 10B, FIG. 10C, FIG. 10D, FIG. 10E, FIG. 9C, FIG. 9D): BMDMs were mock-treated (media replacement only) or treated with 20 ng/mL of IL4±etomoxir (concentration indicated in figures)±CoA (concentration indicated in figures) for 48 hr. Etomoxir and CoA were given as co-treatments simultaneously with IL-4.
Prior to FACS analysis, BMDMs were detached using 350 μL of Accutase, followed by two washes with FACS buffer (PBS+1% (v/v) BSA+0.05% (w/v) sodium azide). Anti-mouse CD16/32 antibody was used at a dilution of 1:500, while all other antibodies were used at a dilution of 1:250. All flow cytometry data were captured using BD FACSVerse flow cytometer and analyzed using the FlowJo X 10.0.7r2 software. In all, 2×104 live events were acquired for each sample (gated on DAPIneg). For analysis, CD206+/CD71+ and CD206+/CD301+ populations were gated based on Fluorescence Minus One (FMO) controls.

[3] = test system: Relma, Mgl2, Ym1, Fabp4, Arg1 expression; experiment: qPCR of IL-4-associated genes in BMDMs; assay type: cell-based, mouse; settings: for IL-4-induced expression of Relma, Ym1, Mgl2: electron transport chain inhibitors
Method: as §1, §2, §3
RNA was isolated with TRIzol, then cDNA was synthesized with high-capacity cDNA reverse transcription kit. KAPA SYBR FAST qPCR Master Mix kit and a LightCycler 480 were used for quantitative RT-PCR. Fold change related to the control group was calculated using […] with 36b4 as the reference gene.

BMDMs = experiment: Basal mitochondrial respiration in intact BMDMs; assay type: cell-based, mouse; settings: 1.2 μM oligomycin, 200 nM rotenone, 200 nM antimycin A, 100 nM piericidin A, 5 μM CAT
Method: All respirometry studies were conducted in either a Seahorse XF96 or XFe96 Analyzer. All experiments were conducted at 37° C., and at pH 7.4 (intact cells) or 7.2 (permeabilized cells and isolated mitochondria). Calculation of respiratory parameters was made according to standard protocols (Divakaruni, A. S., Paradyse, A., Ferrick, D. A., Murphy, A. N., and Jastroch, M. (2014a) Analysis and interpretation of microplate-based oxygen consumption and pH data. Meth. Enzym 547, 509-54), and all rates were corrected for non-mitochondrial respiration/background signal by subtracting the oxygen consumption rate insensitive to rotenone plus antimycin A.
Respiration in intact BMDMs was measured in medium containing 8 mM glucose, 2 mM glutamine, 2 mM pyruvate, and 5 mM HEPES. Cells were plated at 5.0×10^4 cells/well and assayed after 48 hr. When measuring the response to IL-4, cells were treated with 20 ng/mL of IL-4 24 hr. after initial plating, and respiration was measured the following day (˜48 hr after initial seeding). […]

[4] = test system: adenine nucleotide translocase (ANT); experiment: ATP hydrolysis in isolated mitochondria, intact or alamethicin-permeabilized; assay type: biochemical, rat
Description: ATP hydrolysis in isolated mitochondria (McQuaker, S. J., Quinlan, C. L., Caldwell, S. T., Brand, M. D., and Hartley, R. C. (2013). A prototypical small molecule modulator uncouples mitochondria in response to endogenous hydrogen peroxide production. Chembiochem. 14, 993-1000; Divakaruni, A. S., Andreyev, A. Y., Rogers, G. W., and Murphy, A. N. (2017a) In situ measurements of mitochondrial matrix enzyme activities using plasma and mitochondrial membrane permeabilization agents. Anal. Biochem. 17, 30385-8) was performed in MAS buffer, and stimulated by respiratory chain inhibition (1 μM rotenone and 2 μM antimycin A) followed by addition of excess ATP (25 mM) and uncoupler (1 μM FCCP). Hydrolysis was inhibited by injection of either oligomycin (3 ng/mg mitochondrial protein) or carboxyatractylo side (7.5 ng/mg mitochondrial protein). Rates of extracellular acidification (ECAR, in mpH/min) were converted to proton production rates (PPR, in pmol H+/min) by determining the buffer capacity with sequential injections of HCl and H2SO4 (Mookerjee, S. A., Goncalves, R. L., Gerencser, A. A., Nicholls, D. G., and Brand, M. D. (2015). The contributions of respiration and glycolysis to extracellular acid production. Biochim et Biophys Acta. 1847, 171-81). 10 μg/mL alamethicin was used to permeabilize the mitochondrial inner membrane (1 μg/mg mitochondrial protein).

LCFA oxidation in BMDMs = experiment: 9,10-3H-palmitate oxidation (3H2O release) in BMDMs; assay type: cell-based, mouse; settings: 200 nM rotenone or 200 nM antimycin A, IL-4-stimulated
Method: BMDMs at day 6 of differentiation were seeded at 3×10^5 cells/well in 12 well plates in BMDM media. The next day, cells were treated in DMEM containing 25 mM glucose supplemented with 5% FBS, 2 mM L-Glutamax, 100 units/mL, 100 μg/mL penicillin/streptomycin, 1 mM of sodium pyruvate, 1 mM carnitine, and 5% v/v conditioned media containing macrophage colony stimulating factor (M-CSF) under one of 5 conditions: control, 20 ng/mL of IL-4±3 μM or 200 μM of etomoxir, or 200 nM rotenone, or 200 nM antimycin A for 24 hr. Fatty acid oxidation was measured 24 hours later as previously described (Rognstad, R. (1991) Estimation of peroxisomal and mitochondrial fatty acid oxidation in rat hepatocytes using tritiated substrates. Biochem J 279:147-150, 1991; Cha, B. S., Ciaraldi, T. P., Park, K. S., Carter, L., Mudaliar, S. R., and Henry R R. (2005) Impaired fatty acid metabolism in type 2 diabetic skeletal muscle cells is reversed by PPARgamma agonists. Am J Physiol Endocrinol Metab. 289, E151-9) following a fluid change to DMEM with components as described above except 10 mM glucose and 0.2 μCi (final concentration of 5 μM) BSA-conjugated [9,10-3H]palmitic acid. No additional IL-4 was added at the time of this fluid change, but etomoxir, rotenone and antimycin A were added, and the plates were placed in a […] incubator at 37° C. for 3 hr. After incubation, a 100 μL aliquot of the culture medium was passed over an ion-exchange resin, and the column was washed twice with 0.75 ml of water. Free fatty acids were retained by the resin, whereas the tritium hydrolyzed from radiolabeled palmitate catabolism was released as labeled water, which passes freely through the resin, and is subsequently counted for radioactivity. All data are corrected for protein content in each well. There were 3 technical replicates for each condition, and 4 biological replicates arising from 4 separate animals.

[5] = alamethicin-permeabilized mitochondria
[6] = intact isolated mitochondria, etomoxir 100 μM, CAT 7.5 ng/mg, oligomycin 3 ng/mg

For `CCN1C(=O)C=CC1=O` [N-ethyl maleimide, N-ethylmaleimide], the “Pi transporter activity (rate of swelling)” value [1] was “inhibited the rate of swelling”.
`CC(=O)SCCNC(=O)CCNC(=O)[C@H](O)C(C)(C)COP(=O)(O)OP(=O)(O)OC[C@H]1O[C@@H](n2cnc3c(N)ncnc32)[C@H](O)[C@@H]1OP(=O)(O)O` [acetyl CoA] was tested, and the “number of cells positive for both CD206 and CD71” value ([2]; 500 μM acetyl CoA) was “cannot reproduce the effect of CoA”, the “number of cells positive for both CD206 and CD71” value ([2]; acetyl CoA with CoA, both 500 μM) was “counteracts the effect of CoA” and the “expression of Arg1, Mgl2 and Fabp4” value ([3]; 500 μM acetyl CoA) was “different effects than CoA”.
`C=C1[C@@H]2CC[C@H]3[C@]4(C)C[C@H](O[C@@H]5O[C@H](CO)[C@@H](OS(=O)(=O)O)[C@H](OS(=O)(=O)O)[C@H]5OC(=O)CC(C)C)CC(C(=O)O)(C(=O)O)[C@H]4CC[C@]3(C2)[C@H]1O` [carboxyatractyloside] was tested, and the “population of CD206+/CD71+ cells” value [2] was “none of the inhibitors of ATP synthesis or the electron transport chain significantly lowered”, the “respiration at 24 hr” value (BMDMs) was “strongly reduced respiration” and the ATP hydrolysis [4, 5] was “no effect”. For the same compound, the ATP hydrolysis [4, 6] was “inhibited ATP hydrolysis”.
`COC(CNC(=O)c1ccccc1OCC(=O)O)[CH2][Hg][OH]` (stereo not drawn) [mersalyl] was tested, and the “Pi transporter activity (rate of swelling)” value [1] was “inhibited the rate of swelling”.
`CC[C@H]1/C=C/C=C/C[C@@H](C)[C@H](O)[C@@](C)(O)C(=O)[C@@H](C)[C@H](O)[C@@H](C)C(=O)[C@@H](C)[C@H](O)[C@@H](C)/C=C/C(=O)O[C@@H]2[C@H](C)[C@H](CC1)O[C@]1(CC[C@H](C)[C@H](C[C@@H](C)O)O1)[C@H]2C` [oligomycin] was tested, and the “population of CD206+/CD71+ cells” value [2] was “none of the inhibitors of ATP synthesis or the electron transport chain significantly lowered”, the “respiration at 24 hr” value (BMDMs) was “strongly reduced respiration” and the ATP hydrolysis [4, 5] was “remained inhibitory”. The ATP hydrolysis [4, 6] was “inhibited ATP hydrolysis”.
For `C/C=C(\C)[C@H](O)[C@H](C)/C=C(C)/C=C/C/C(C)=C/Cc1nc(OC)c(OC)c(O)c1C` [piericidin A], the “population of CD206+/CD71+ cells” value [2] was “none of the inhibitors of ATP synthesis or the electron transport chain significantly lowered”, the “respiration at 24 hr” value (BMDMs) was “strongly reduced respiration” and the “IL-4-induced expression of Relma, Ym1, Mgl2” value ([3]; IL-4, 24 hr) was “failed to reduce”. For the same compound, the “expression of Ym1 and Arg1” value ([3]; mitochondrial inhibitors, IL-4, 24 hr) was “increased expression”.
antimycin A was tested, and the “population of CD206+/CD71+ cells” value [2] was “none of the inhibitors of ATP synthesis or the electron transport chain significantly lowered”, the “3H2O release from 9,10-3H-palmitate” value (LCFA oxidation in BMDMs) was “suppressed LCFA oxidation to levels in line with 200 μM etomoxir” and the “respiration at 24 hr” value (BMDMs) was “strongly reduced respiration”. For the same compound, the “IL-4-induced expression of Relma, Ym1, Mgl2” value ([3]; IL-4, 24 hr) was “failed to reduce”.
